Columns and labels:
[1] = system: Spodoptera littoralis (Egyptian Cotton Leaf Worm); test: whole plant or invertebrate; conditions: in Gossypium barbadense, foliar, 72 h, read-out: control (mortality, anti-feeding effect, growth inhibition)
[2] = system: Myzus persicae (Green Peach Aphid); test: whole plant or invertebrate; conditions: foliar, 144 h
[3] = system: Myzus persicae (Green Peach Aphid); test: whole plant or invertebrate; type: in vivo; conditions: 144 h, test rate of 24 ppm, systemic, roots of infested pea seedlings in test solution, 6 days
[4] = system: Diabrotica Balteata (Corn Root Worm); test: Diabrotica balteata (Corn Root Worm); conditions: in Zea mays, 96 h, read-out: effect in at least one of the two categories (mortality or growth inhibition)
[5] = system: Plutella xylostella (Diamond Back Moth); test: whole plant or invertebrate; type: in vivo; conditions: 120 h, application rate of 200 ppm, L2 larvae on treated artificial diet, 5 days after infestation, read-out: effect in at least one of the two categories (mortality or growth inhibition)
[6] = system: Euschistus heros (Neotropical Brown Stink Bug); test: whole plant or invertebrate; type: in vivo; conditions: 120 h, application rate of 200 ppm, N2 nymphs on sprayed soybean leaves, 5 days after infestation, read-out: effect in at least one of the two categories (mortality or growth inhibition)

CCS(=O)(=O)c1cc(OC)cnc1-c1nc2cc(C(F)(F)F)ncc2n1C [Compound P13, 2-(3-ethylsulfonyl-5-methoxy-2-pyridyl)-3-methyl-6-(trifluoromethyl)imidazo[4,5-c]pyridine]
≥ 80%: mortality at 200 ppm [1] | mortality at 200 ppm [2] | mortality at 24 ppm [3] | mortality at 200 ppm [4] | percent effect (mortality or growth inhibition) at 200 ppm [5]

CCS(=O)(=O)c1cc(OC(F)(F)C(=O)N(C)C)cnc1-c1nc2cc(C(F)(F)F)ncc2n1C [Compound P6, 2-[[5-ethylsulfonyl-6-[3-methyl-6-(trifluoromethyl)imidazo[4,5-c]pyridin-2-yl]-3-pyridyl]oxy]-2,2-difluoro-N,N-dimethyl-acetamide]
≥ 80%: mortality at 200 ppm [2] | mortality at 24 ppm [3] | mortality at 200 ppm [4] | percent effect (mortality or growth inhibition) at 200 ppm [5] | percent effect (mortality or growth inhibition) at 200 ppm [6]

CCS(=O)(=O)c1cc(OCOC)cnc1-c1nc2cc(C(F)(F)F)ncc2n1C [Compound P68, 2-[3-ethylsulfonyl-5-(methoxymethoxy)-2-pyridyl]-3-methyl-6-(trifluoromethyl)imidazo[4,5-c]pyridine]
≥ 80%: mortality at 200 ppm [1] | mortality at 200 ppm [2] | mortality at 24 ppm [3] | mortality at 200 ppm [4] | percent effect (mortality or growth inhibition) at 200 ppm [5] | percent effect (mortality or growth inhibition) at 200 ppm [6]

CCSc1cc(OC(C)C)cnc1-c1nc2cc(C(F)(F)F)ncc2n1C [Compound P27, 2-(3-ethylsulfanyl-5-isopropoxy-2-pyridyl)-3-methyl-6-(trifluoromethyl)imidazo[4,5-c]pyridine]
≥ 80%: mortality at 200 ppm [1] | mortality at 200 ppm [2] | mortality at 200 ppm [4] | percent effect (mortality or growth inhibition) at 200 ppm [5]

CCS(=O)(=O)c1cc(OC(F)(F)F)cnc1-c1nc2cc(C(F)(F)F)ncc2n1C [Compound P98, 2-[3-ethylsulfonyl-5-(trifluoromethoxy)-2-pyridyl]-3-methyl-6-(trifluoromethyl)imidazo[4,5-c]pyridine]
≥ 80%: mortality at 200 ppm [1] | mortality at 200 ppm [4] | percent effect (mortality or growth inhibition) at 200 ppm [5] | percent effect (mortality or growth inhibition) at 200 ppm [6]

C#CC(C)(C)Oc1cnc(-c2nc3cc(C(F)(F)F)ncc3n2C)c(SCC)c1 [Compound P82, 2-[5-(1,1-dimethylprop-2-ynoxy)-3-ethylsulfanyl-2-pyridyl]-3-methyl-6-(trifluoromethyl)imidazo[4,5-c]pyridine]
≥ 80%: mortality at 200 ppm [1] | mortality at 200 ppm [4] | percent effect (mortality or growth inhibition) at 200 ppm [6]

CCS(=O)(=O)c1cc(OC2(C)COC2)cnc1-c1nc2cc(C(F)(F)F)ncc2n1C [Compound P4, 2-[3-ethylsulfonyl-5-(3-methyloxetan-3-yl)oxy-2-pyridyl]-3-methyl-6-(trifluoromethyl)imidazo[4,5-c]pyridine]
≥ 80%: mortality at 200 ppm [2] | mortality at 24 ppm [3] | mortality at 200 ppm [4] | percent effect (mortality or growth inhibition) at 200 ppm [5] | percent effect (mortality or growth inhibition) at 200 ppm [6]

CCS(=O)(=O)c1cc(O[C@H]2C[C@H](OC)C2)cnc1-c1nc2cc(C(F)(F)F)ncc2n1C [Compound P45, 2-[3-ethylsulfonyl-5-(3-methoxycyclobutoxy)-2-pyridyl]-3-methyl-6-(trifluoromethyl)imidazo[4,5-c]pyridine]
≥ 80%: mortality at 200 ppm [1] | mortality at 200 ppm [2] | mortality at 24 ppm [3] | percent effect (mortality or growth inhibition) at 200 ppm [5] | percent effect (mortality or growth inhibition) at 200 ppm [6]

CCSc1cc(OC(C)C)cnc1-c1nc2cc(SC(F)(F)F)ncc2n1C [Compound P74, 2-(3-ethylsulfanyl-5-isopropoxy-2-pyridyl)-3-methyl-6-(trifluoromethylsulfanyl)imidazo[4,5-c]pyridine]
≥ 80%: mortality at 200 ppm [1] | mortality at 200 ppm [2] | mortality at 200 ppm [4] | percent effect (mortality or growth inhibition) at 200 ppm [5] | percent effect (mortality or growth inhibition) at 200 ppm [6]

CCS(=O)(=O)c1cc(OC2COC2)cnc1-c1nc2cc(C(F)(F)F)ncc2n1C [Compound P1, 2-[3-ethylsulfonyl-5-(oxetan-3-yloxy)-2-pyridyl]-3-methyl-6-(trifluoromethyl)imidazo[4,5-c]pyridine]
≥ 80%: mortality at 200 ppm [2] | mortality at 24 ppm [3] | mortality at 200 ppm [4] | percent effect (mortality or growth inhibition) at 200 ppm [5] | percent effect (mortality or growth inhibition) at 200 ppm [6]

CCS(=O)(=O)c1cc(OCC(F)F)ccc1-c1nc2cc(C(F)(F)F)ncc2n1C [Compound P107, 2-[4-(2,2-difluoroethoxy)-2-ethylsulfonyl-phenyl]-3-methyl-6-(trifluoromethyl)imidazo[4,5-c]pyridine]
≥ 80%: mortality at 200 ppm [1] | mortality at 200 ppm [2] | mortality at 24 ppm [3] | mortality at 200 ppm [4] | percent effect (mortality or growth inhibition) at 200 ppm [5] | percent effect (mortality or growth inhibition) at 200 ppm [6]

CCS(=O)(=O)c1cc(OCC(C)=O)cnc1-c1nc2cc(C(F)(F)F)ncc2n1C [Compound P65, 1-[[5-ethylsulfonyl-6-[3-methyl-6-(trifluoromethyl)imidazo[4,5-c]pyridin-2-yl]-3-pyridyl]oxy]propan-2-one]
≥ 80%: mortality at 200 ppm [2] | mortality at 24 ppm [3] | mortality at 200 ppm [4] | percent effect (mortality or growth inhibition) at 200 ppm [5] | percent effect (mortality or growth inhibition) at 200 ppm [6]

CCOc1cnc(-c2nc3cc(C(F)(F)F)ncc3n2C)c(S(=O)(=O)CC)c1 [Compound P12, 2-(5-ethoxy-3-ethylsulfonyl-2-pyridyl)-3-methyl-6-(trifluoromethyl)imidazo[4,5-c]pyridine]
≥ 80%: mortality at 200 ppm [1] | mortality at 200 ppm [2] | mortality at 24 ppm [3] | mortality at 200 ppm [4] | percent effect (mortality or growth inhibition) at 200 ppm [5]

CCS(=O)(=O)c1cc(OCCF)cnc1-c1nc2cc(C(F)(F)F)ncc2n1C [Compound P31, 2-[3-ethylsulfonyl-5-(2-fluoroethoxy)-2-pyridyl]-3-methyl-6-(trifluoromethyl)imidazo[4,5-c]pyridine]
≥ 80%: mortality at 200 ppm [1] | mortality at 200 ppm [2] | mortality at 24 ppm [3] | mortality at 200 ppm [4] | percent effect (mortality or growth inhibition) at 200 ppm [5] | percent effect (mortality or growth inhibition) at 200 ppm [6]

CCS(=O)(=O)c1cc(OC(C)C)cnc1-c1nc2cc(SC(F)F)ncc2n1C [Compound P86, 6-(difluoromethylsulfanyl)-2-(3-ethylsulfonyl-5-isopropoxy-2-pyridyl)-3-methyl-imidazo[4,5-c]pyridine]
≥ 80%: mortality at 200 ppm [1] | mortality at 200 ppm [2] | mortality at 24 ppm [3] | mortality at 200 ppm [4] | percent effect (mortality or growth inhibition) at 200 ppm [5] | percent effect (mortality or growth inhibition) at 200 ppm [6]

CCS(=O)(=O)c1cc(O/N=C(\C)c2cc(F)cc(F)c2)cnc1-c1nc2cc(C(F)(F)F)ncc2n1C [Compound P96, (E)-1-(3,5-difluorophenyl)-N-[[5-ethylsulfonyl-6-[3-methyl-6-(trifluoromethyl)imidazo[4,5-c]pyridin-2-yl]-3-pyridyl]oxy]ethanimine]
≥ 80%: mortality at 200 ppm [1] | mortality at 200 ppm [4] | percent effect (mortality or growth inhibition) at 200 ppm [5] | percent effect (mortality or growth inhibition) at 200 ppm [6]

CCSc1cc(OCC(F)F)cnc1-c1nc2cc(C(F)(F)F)ncc2n1C [Compound P81, 2-[5-(2,2-difluoroethoxy)-3-ethylsulfanyl-2-pyridyl]-3-methyl-6-(trifluoromethyl)imidazo[4,5-c]pyridine]
≥ 80%: mortality at 200 ppm [1] | mortality at 24 ppm [3] | mortality at 200 ppm [4] | percent effect (mortality or growth inhibition) at 200 ppm [5] | percent effect (mortality or growth inhibition) at 200 ppm [6]

CCOC(=O)Oc1cnc(-c2nc3cc(C(F)(F)F)ncc3n2C)c(S(=O)(=O)CC)c1 [Compound P84, ethyl [5-ethylsulfonyl-6-[3-methyl-6-(trifluoromethyl)imidazo[4,5-c]pyridin-2-yl]-3-pyridyl] carbonate]
≥ 80%: mortality at 200 ppm [1]

CCSc1cc(OC(C)C)cnc1-c1nc2cc(S(=O)(=O)C(F)(F)F)ncc2n1C [Compound P73, 2-(3-ethylsulfanyl-5-isopropoxy-2-pyridyl)-3-methyl-6-(trifluoromethylsulfonyl)imidazo[4,5-c]pyridine]
≥ 80%: mortality at 200 ppm [1] | mortality at 200 ppm [2] | mortality at 200 ppm [4] | percent effect (mortality or growth inhibition) at 200 ppm [5] | percent effect (mortality or growth inhibition) at 200 ppm [6]

CCS(=O)(=O)c1cc(OS(=O)(=O)C(F)(F)F)cnc1-c1nc2cc(C(F)(F)F)ncc2n1C [Compound P92, [5-ethylsulfonyl-6-[3-methyl-6-(trifluoromethyl)imidazo[4,5-c]pyridin-2-yl]-3-pyridyl] trifluoromethanesulfonate]
≥ 80%: mortality at 200 ppm [1]

CCS(=O)(=O)c1cc(OCC2CCC2)cnc1-c1nc2cc(C(F)(F)F)ncc2n1C [Compound P69, 2-[5-(cyclobutylmethoxy)-3-ethylsulfonyl-2-pyridyl]-3-methyl-6-(trifluoromethyl)imidazo[4,5-c]pyridine]
≥ 80%: mortality at 200 ppm [1] | mortality at 200 ppm [2] | mortality at 200 ppm [4] | percent effect (mortality or growth inhibition) at 200 ppm [6]

CCS(=O)(=O)c1cc(OC(C)C)ccc1-c1nc2cc(C(F)(F)F)ncc2n1C [Compound P108, 2-(2-ethylsulfonyl-4-isopropoxy-phenyl)-3-methyl-6-(trifluoromethyl)imidazo[4,5-c]pyridine]
≥ 80%: mortality at 200 ppm [1] | mortality at 200 ppm [2] | mortality at 200 ppm [4] | percent effect (mortality or growth inhibition) at 200 ppm [5] | percent effect (mortality or growth inhibition) at 200 ppm [6]
